Assay results: ChEMBL document CHEMBL1671653, “GT-1a or GT-1b subtype-specific resistance profiles for hepatitis C virus inhibitors telaprevir and HCV-796” (Antimicrob Agents Chemother, 2009)

Legend:
Type in all cases: functional, organism-based, Hepacivirus hominis
Hepatitis C virus [1] = assay: Antiviral activity against Hepatitis C virus GT-1a harboring NS5B polymerase M414T mutant gene
Hepatitis C virus [2] = assay: Antiviral activity against Hepatitis C virus GT-1a harboring wild type NS5B polymerase
Hepatitis C virus [3] = assay: Antiviral activity against Hepatitis C virus GT-1a harboring NS5B polymerase C316Y/M414T mutant gene
Hepatitis C virus [4] = assay: Antiviral activity against Hepatitis C virus GT-1b assessed as inhibition of HCV replicon-encoded Renilla luciferase reporter activity after 3 days; settings: 72 h
Hepatitis C virus [5] = assay: Antiviral activity against Hepatitis C virus GT-1b harboring wild type NS5B polymerase
Hepatitis C virus [6] = assay: Antiviral activity against Hepatitis C virus GT-1a harboring NS5B polymerase C316Y/L392F mutant gene
Hepatitis C virus [7] = assay: Antiviral activity against Hepatitis C virus GT-1b harboring NS5B polymerase C316Y mutant gene relative to wild type
Hepatitis C virus [8] = assay: Antiviral activity against Hepatitis C virus GT-1a harboring NS5B polymerase C316Y mutant gene
Hepatitis C virus [9] = assay: Antiviral activity against Hepatitis C virus GT-1a harboring NS5B polymerase L392F mutant gene
Hepatitis C virus [10] = assay: Antiviral activity against Hepatitis C virus GT-1a harboring NS5B polymerase L392F/M414T mutant gene
Hepatitis C virus [11] = assay: Antiviral activity against Hepatitis C virus GT-1a assessed as inhibition of HCV replicon-encoded Renilla luciferase reporter activity after 3 days; settings: 72 h

| Structure (SMILES) | EC50 (Hepatitis C virus [1]) [nM] | EC50 (Hepatitis C virus [2]) [nM] | EC50 (Hepatitis C virus [3]) [nM] | EC50 (Hepatitis C virus [4]) [nM] | EC50 (Hepatitis C virus [5]) [nM] | EC50 (Hepatitis C virus [6]) [nM] | EC50 (Hepatitis C virus [7]) [nM] | EC50 (Hepatitis C virus [8]) [nM] | EC50 (Hepatitis C virus [9]) [nM] | EC50 (Hepatitis C virus [10]) [nM] | EC50 (Hepatitis C virus [11]) [nM] |
| --- | --- | --- | --- | --- | --- | --- | --- | --- | --- | --- | --- |
| CNC(=O)c1c(-c2ccc(F)cc2)oc2cc(N(CCO)S(C)(=O)=O)c(C3CC3)cc12 [NESBUVIR] | 7 | 4 | 2800 | 17 | 6 | 3200 | 6 | 1700 | 8 | 22 |  |
| CCC[C@H](NC(=O)[C@@H]1[C@H]2CCC[C@H]2CN1C(=O)[C@@H](NC(=O)[C@@H](NC(=O)c1cnccn1)C1CCCCC1)C(C)(C)C)C(=O)C(=O)NC1CC1 [TELAPREVIR] |  |  |  | 560 |  |  |  |  |  |  | 500 |
